Experiment [1] relates to HL-60. The experiment in a line: HM-27 induced cell death in AML cell line, TO-PRO-3 staining and FACS. It is filed as cell-based. The protocol: (§1) FIGS. 42A-42B. […] U937, HL-60 and NB4 cells were treated with varying doses of HM-27 for 24 hr and cell death was determined as described in Materials and Methods. U937 and NB4 cells (150,000) exposed to HM-27 for 24 h were collected and analyzed for Caspase 3 activity using the FITC Active Caspase-3 Apoptosis Kit (BDPharmingen) as per manufacturer's instructions. All figures are a representative of three independent experiments done in triplicates.
(§2) Cells were collected after incubation with HM-27 and analyzed for markers of cell death indicative of either apoptosis, autophagy or necrosis. BM-MNCs were isolated from marrow aspirates of AML patients and normal individuals by Ficoll-Paque centrifugation and further enriched for CD34+ cells using immunomagnetic beads. Cell death was assessed by TO-PRO-3 staining followed by FACS analysis.

Experiment [2] deals with U937. The experiment is described as above. It is filed as cell-based. As to the method:
as §1, §2

Experiment [3] deals with NB4. Described as above. It is filed as cell-based. As to the method: as §1, §2
Experiment [4] concerns A549 cells. The experiment in a line: MTT viability, combination index with MEK inhibitor. It is filed as cell-based. The protocol: FIG. 69. MTI-101 plus EGFR inhibitors are synergistic in lung cancer cell lines with EGFR activating mutations, and MTI-101 plus MEK inhibitors are synergistic in cell lines arboring activating RAS or BRAFF mutations. Values indicate average calculated combination index (CI). Additive (CI=1), synergism (CI<1) and, antagonism (CI>1). […] Cell viability was measured by the MTT assay. Data generated were used to calculate a Chou and Talalay Combination Index (CI).

In experiment [5] the test system is lung cancer (LC) cell lines. As to the kind of experiment: High-throughput CellTiter-Blue cell viability assay in lung cancer cell lines. The class given is cell-based. The settings on record: IC50 values shown only in figure. The protocol: FIG. 35 is a graph showing IC-50 levels of 24 lung cancer (LC) cell lines treated with cyclized HYD1 (MTI-101). The activity of c-HYD1 was screened using a high-throughput CellTiter-Blue cell viability assay. Cell viability was assessed by the ability of the remaining viable cells to bioreduce resazurin to resorufin. Resazurin is dark blue in color and has little intrinsic fluorescence until it is reduced to resorufin (579 nm Ex/584 nm Em). The change in fluorescence was measured with a Synergy 4 microplate reader (Bio-Tek Instruments, Inc.). […] IC50s were determined as the concentration of drug required for 50% reduction in growth/viability. Shown is the mean IC50 value for each lung cancer cell line tested. Experiments were repeated 2-3 times.
FIG. 67. […] IC50 values were calculated from survival curves and the mean value is represented (n=2 independent experiments).

Experiment [6] has as its system normal CD34-positive cells. The experiment in a line: Cell death in CD34+ cells from normal individuals. The class given is cell-based, human. The note with it: 24 hours. As to the method: FIG. 45. Primary CD34+AML cells are sensitive to HM-27 (MTI-101) while their normal counterparts are not. Enriched CD34+ cells from peripheral blood and bone marrow of normal individuals were treated with varying doses of HM-27 for 24 hours and then analyzed for cell death as described in the Materials and Methods.
FIG. 64. MTI-101 induces cell death in primary CD34 progenitor cells from AML patient. […] CD34-positive cells were enriched using immunomagnetic beads in primary AML samples and normal bone marrow aspirates. Cell death was measured by annexin V positivity and FACS analysis.
as §2

Experiment [7] deals with pPyk2, pAkt and pErk1/2 in U937 or HL-60 cells. As to the kind of experiment: Western blot of signaling in AML cells after peptide treatment. It is filed as cell-based. The note with it: U937 or HL-60, 50 μM MTI-101, western blot. The protocol: FIG. 44. U937 or HL-60 cells were treated with 50 μM MTI-101 for the indicated times and pPyk2, pAkt and pErk1/2 were detected by western blot analysis.
Consistent with data obtained with the linear peptide, we show CD44 and VLA-4 are pulled down using biotin conjugated HM-27 as bait.

The subject of experiment [8] is H929 myeloma cells engrafted into the bone implant. As to the kind of experiment: MM SCID-Hu in vivo model, tumor burden by circulating Kappa/paraprotein levels (ELISA). The note with it: H929, 8 mg/kg i.p. More on the design: species or system mice. The protocol: Briefly, 50,000 H929 myeloma cells were engrafted into the bone implant for 10 days prior to initiation of peptide treatment. Following tumor engraftment mice were randomized (0 time point) and injected with 8 mg/kg c-HYD1 or vehicle control (VC) daily (I.P. injections) for 14 days and every other day from day 14-28 at which time treatment stopped. Tumor burden was measured by circulating Kappa levels by ELISA weekly. N=10 mice for vehicle control (VC) and 9 mice for c-HYD1 treated.
FIG. 49. Cyclic HYD1 (MTI-101) was dosed daily at 8 mpk for the first week and then every other day for 4 weeks. The mice were bled weekly to measure paraprotein as a surrogate for tumor burden. […] Three of five vehicle-treated control animals had died by 35 days which contributes to the large SD.
FIGS. 61A-61C. MTI-101 inhibits tumor growth and increases survival in two independent myeloma in vivo models. […] FIG. 61A: Scid-hu model: Following tumor engraftment (2 weeks) mice were randomized (0 time point) and injected with 8 mg/kg MT101 or vehicle control (control) daily (i.p. injections) for 14 days and every other day from day 14-28 at which time treatment stopped. Tumor burden was measured by circulating paraprotein (K light chain) levels by ELISA weekly. […] Images were quantified utilizing Image J and tumor volume in the bone was quantified relative to the entire bone volume (n=5 tibias per group).

Structures are written as SMILES. Entries after “also recorded” stand apart in the source; their conditions may differ. *1 amine or outer side, *2 acyl side, *3 side chain or, on linkers, in order; H or OH if unused. Where a SMILES comes first, the peptide text is derived from it. Bridges are numbered along the chain shown (N, C = ends). [ ]: non-standard residue; d: D form. The star is where a group is joined. dProlinol(O-CH2CO) = O=C(COC[C@H]1CCCN1[*:1])[*:2]; N(2-Aminoethyl)Gly = O=C(CN(CCN[*:3])[*:1])[*:2]; Nle = CCCC[C@H](N)C(=O)O; Ms = CS(=O)(=O)*

One may read the IC50 as the concentration needed to halve the response being measured. A high value points to weaker potency. For `CCCC[C@@H]1NC(=O)CN(S(C)(=O)=O)CCNC(=O)[C@H](CCCCN)NC(=O)[C@H](CC(C)C)NC(=O)[C@H](CCCCN)NC(=O)[C@H](CC(C)C)NC(=O)[C@H](CCCCN)NC(=O)COC[C@H]2CCCN2C(=O)[C@H](Cc2c[nH]c3ccccc23)NC(=O)[C@H](C)NC(=O)[C@H](C(C)C)NC(=O)[C@H](C(C)C)NC1=O` [MTI-101] (Ms-[N(2-Aminoethyl)Gly][Nle]VVAW[dProlinol(O-CH2CO)]KLKLK; lactam 1-C), the IC50 in experiment [1] is 76.2 µM; in experiment [2] it was 38.5 µM; in experiment [3] it was 65 µM. The “combination with MEK inhibitor Selumetinib” value in experiment [4] was “Synergistic growth”. Further, in experiment [5], the “growth of lung cancer cell lines” value was “inhibits the growth of several lung cancer cell lines”. Further, the results for the “cell death in normal CD34+ cells” value in experiment [6] and in experiment [6] (listed as HM-27) were “devoid of activity in normal CD34-positive cells” and “CD34+ cells from normal individuals are not sensitive to HM-27”, respectively. The “phospho-protein levels in AML cells” value in experiment [7] is “increased the levels of pPyk2 and pErk1/2, but not pAKT”; in experiment [7] (listed as HM-27), “induced an early activation of Erk1/2 in AML cells”. For the same compound, the “tumor growth / tumor burden” value in experiment [8] was “significantly reduces tumor growth (p<0.05 ANOVA)”; in experiment [8] (listed as c-HYD1), “completely inhibits human MM tumor xenographs growth in SCID mice; also recorded: inhibits multiple myeloma engrafted tumor in the SCID-HU model”.
